Experimental data as given in patent publication US5395947A, “Platinum(II) complex and processes for preparing the same” (Sunkyong Industries, Ltd., priority 1991, dated 1995).

Assays:
[1] = test system: murine leukemia L1210 cells; assay: Growth inhibition test on cultured murine leukemia L1210 cells; type: cell-based; conditions: 48 hours, 37° C., Trypan blue viability
Experimental: 1. Growth inhibition test on cultured murine leukemia L1210 cells
Murine leukemia L1210 cells(1×10^5) were treated with various concentrations of the compounds prepared in the above examples in RPMI 1640 medium supplemented with 10% fetal calf serum, and cultured in a 5% CO2 humidified incubator at 37° C. for 48 hours. Their viability, estimated by staining with 0.17% Trypan blue, was compared with that of control cells cultured in the identical medium without the compounds.

murine leukemia L1210 = assay: Antitumor activity test on murine leukemia L1210 in vivo; parameters: species or system male BDF1 mice; conditions: days 1, 5, 9
Experimental: 2. Antitumor activity test on murine leukemia L1210 in vivo
Murine leukemia L1210 cells were maintained in the peritoneal cavities of 6-week-old male DBA/2 mice by weekly transfer in accordance with the procedure described in cancer chemotherapy Reports, Part 3, 3(2), 7 (1972). Specifically, 1×10^6 leukemia cells were inoculated into the abdominal cavities of 6-week-old male BDF1 mice weighing 21±3 g on day 0. Each treatment group consisted of seven mice. The test compounds were dissolved or suspended in 0.5% carboxymethyl cellulose(CMC)solution (in water) and were administered intraperitoneally on days 1, 5, and 9 relative to the tumor inoculation.
Thirty mice of 6-week-old male BDF1 weighing 21±3 g were used as the control group, which were injected with 0.5% CMC solution only in the same manner as above.
Anti-tumor activities of the compounds were evaluated in terms of the T/C % values calculated from the mean survival time(T) of the compound-treated group over that(C) of the control group. [formula]

[2] = Test for water solubility; type: physicochemical
Text: 3. Test for water solubility
A standard plot of UV absorbance(220 nm) vs. concentration was made; and employed to determine water-solubility.
The mixture was then passed through a 0.45 micron disposable membrane filter before dilution and UV measurement.

| Compound | IC50 (concentration required for 50% inhibition of growth) [1] | T/C (%) (murine leukemia L1210; 25 mg/kg i.p.) | T/C (%) (murine leukemia L1210; 50 mg/kg i.p.) | T/C (%) (murine leukemia L1210; 100 mg/kg i.p.) | Solubility in water ([2]; water) | Solubility in water ([2]; 20° C.) | T/C (%) (murine leukemia L1210; 6.2 mg/kg i.p.) | T/C (%) (murine leukemia L1210; 12.5 mg/kg i.p.) | T/C (%) (murine leukemia L1210; 3.1 mg/kg i.p.) |
| --- | --- | --- | --- | --- | --- | --- | --- | --- | --- |
| CCC1C(=O)[O][Pt]2([NH]C[C@H]3OC4(CCCC4)O[C@@H]3C[NH]2)[O]C1=O (stereo partly drawn) [Example 45, cis-ethylmalonato[(4R,5R)-4,5-bis(aminomethyl)-1,3-dioxolane-2-spiro-1'-cyclopentane]platinum (II)] | 1.40 µg/mL | 147% | 232% | 216% | 2700 µg/mL | – | – | – | – |
| O=C1[O][Pt-2]2([NH2+]CC3OCOC3C[NH2+]2)[O]C(=O)C12CCC2 [Example 21, cis-cyclobutane-1,1-dicarboxylato[(4S,5S)-4,5-bis(aminomethyl)-1,3-dioxolane]platinum(II)] | 2.08 µg/mL | – | – | – | – | 3100 µg/mL | – | – | – |
| N.N.O=C([O-])C1(C(=O)[O-])CCC1.[Pt+2] [carboplatin, reference compound] | 1.98 µg/mL | 148% | 196% | 197% | 10000 µg/mL | – | 107% | 125% | – |
| CC1(C)OC2C[NH2+][Pt-2]3([NH2+]CC2O1)[O]C(=O)C1(CCC1)C(=O)[O]3 [Example 27, cis-cyclobutane-1,1-dicarboxylato[(4S,5S)-4,5-bis(aminomethyl)-2,2-dimethyl-1,3-dioxolane]platinum(II)] | 2.36 µg/mL | 124% | 148% | 142% | 1900 µg/mL | – | 112% | 106% | – |
| CC(C)C1OC2C[NH2+][Pt-2]3([NH2+]CC2O1)[O]C(=O)C1(CCC1)C(=O)[O]3 [Example 28, cis-cyclobutane-1,1-dicarboxylato[(4R,5R)-4,5-bis(aminomethyl)-2-isopropyl-1,3-dioxolane]platinum(II)] | 1.14 µg/mL | 126% | 133% | 130% | 2100 µg/mL | – | 113% | 106% | – |
| CC(C)C1OC2C[NH2+][Pt-2]3([NH2+]CC2O1)[O]C(=O)C1(CCC1)C(=O)[O]3 [Example 29, cis-cyclobutane-1,1-dicarboxylato[(4S,5S)-4,5-bis(aminomethyl)-2-isopropyl-1,3-dioxolane]platinum(II)] | 2.12 µg/mL | – | – | – | – | 2000 µg/mL | – | – | – |
| O=C1[O][Pt-2]2([NH2+]CC3OC4(CCCC4)OC3C[NH2+]2)[O]C(=O)C12CCC2 [Example 31, cis-cyclobutane-1,1-dicarboxylato[(4S,5S)-4,5-bis(aminomethyl)-1,3-dioxolane-2-spiro-1'-cyclopentane]platinum(II)] | 1.75 µg/mL | 94% | 106% | 117% | 1900 µg/mL | – | 102% | 109% | – |
| CC(C)CC1OC2C[NH2+][Pt-2]3([NH2+]CC2O1)[O]CC(=O)[O]3 [Example 11, (glycolato-O,O')[(4R,5R)-4,5-bis(aminomethyl)-2-isobutyl-1,3-dioxolane]platinum(II)] | 0.10 µg/mL | toxic | toxic | – | 4600 µg/mL | – | 146% | 191% | 102% |
| CCC1C(=O)[O][Pt-2]2([NH2+]CC3OC(C(C)C)OC3C[NH2+]2)[O]C1=O [Example 44, cis-ethylmalonato[(4R,5R)-4,5-bis(aminomethyl)-2-isopropyl-1,3-dioxolane]platinum(II)] | 0.47 µg/mL | 137% | 169% | 243% | – | 7800 µg/mL | – | – | – |
| CCC1OC2C[NH2+][Pt-2]3([NH2+]CC2O1)[O]C(=O)C(CC)C(=O)[O]3 [Example 43, cis-ethylmalonato[(4R,5R)-4,5-bis(aminomethyl)-2-ethyl-1,3-dioxolane]platinum(II)] | 0.72 µg/mL | 197% | 245% | toxic | 7900 µg/mL | – | – | – | – |
| CC1[O][Pt][O]C1=O.NCC1OC2(CCCCC2)OC1CN [Example 16, (L-lactato-O,O'){cyclohexanespiro-2'-[(4'R,5'R)-4',5'-bis(aminomethyl)-1',3'-dioxolane]}platinum(II)] | 0.34 µg/mL | 227% | toxic | – | 3800 µg/mL | – | – | 204% | – |
| CC(C)(C)C1OC2C[NH2+][Pt-2]3([NH2+]CC2O1)[O]CC(=O)[O]3 [Example 12, (glycolato-O,O')[(4R,5R)-4,5-bis(aminomethyl)-2-tert-butyl-1,3-dioxolane]platinum(II)] | 0.10 µg/mL | 167% | toxic | – | 2100 µg/mL | – | 136% | 154% | 104% |
| O=C1[O][Pt-2]2([NH2+]CC3OC4(CCCCC4)OC3C[NH2+]2)[O]C(=O)C12CCC2 [Example 32, cis-cyclobutane-1,1-dicarboxylato[(4R,5R)-4,5-bis(aminomethyl)-1,3-dioxolane-2-spiro-1'-cyclohexane]platinum(II)] | 1.05 µg/mL | – | – | – | – | 900 µg/mL | – | – | – |
| NC[C@@H]1OC2(CCCCC2)O[C@H]1CN.O=C1[O][Pt][O]C(=O)C12CCC2 [Example 46, cis-cyclobutane-1,1-dicarboxylato[(4S, 5S)-4,5-bis(aminomethyl)-1,3-dioxolane-2-spiro-1'-cyclohexane]platinum(II)] | 2.23 µg/mL | – | – | – | – | 900 µg/mL | – | – | – |
| CCCC1OC2C[NH2+][Pt-2]3([NH2+]CC2O1)[O]CC(=O)[O]3 [Example 10, (glycolato-O,O')[(4R,5R)-4,5-bis(aminomethyl)-2-propyl-1,3-dioxolane]platinum(II)] | 0.13 µg/mL | toxic | toxic | – | > 30000 µg/mL | – | 161% | 201% | 154% |
